Values quoted from earlier work, collected in PMC8730323 (The Journal of organic chemistry, 2021).

Assays:
[1] = tested on: normal cells
[2] = tested on: HL-60 cell line; conditions: read-out: IC50 against HL-60 cell line; leukemia cells
[3] = tested on: NCL-H460 cell line; conditions: read-out: IC50 against human lung cancer NCL-H460 cell line

| IC50 [2] [µM] | IC50 [3] [µM] | Compound | Toxicity to normal cells compared with cancer cells (in words) [1] |
| --- | --- | --- | --- |
| 3.2 |  | Cc1c(O)cc(C[C@]23C[C@H](C[C@H](C)O2)c2c4c(c(O)c(C)c2O3)CO[C@@]2(C4)C[C@@H](O)C[C@H](C)O2)c(C=O)c1O [(+)-1, (+)-peniciketal A] | less toxic |
|  | 20.2 | (−)-diocollettines A [(−)-5] |  |
